Structures are written as SMILES.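 Results reflect a 48-hour exposure of cells in 96-well plates to compound at five concentrations. Here, GI50 denotes the concentration required for 50% inhibition of growth. At the TGI there is no net growth.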

For seven compounds, GI50 and TGI results are on record in PubChem BioAssay (NCI).

Some test systems named below: SK-MEL-2 melanoma; HCT-116 colon; NCI/ADR-RES ovarian; K-562 leukemia; M14 melanoma; ACHN renal; MDA-MB-435; HS 578T breast; UACC-62 melanoma; T-47D breast.
Experiment in all cases: NCI tumour cell line growth inhibition, 48 h

For the compound `c1ccc2[nH]c(-c3ccc(NN=Nc4ccncc4)cc3)nc2c1`, the GI50 in the test with SK-MEL-2 melanoma was 15.4 µM; in the test on HCT-116 colon, 26.3 µM; with NCI/ADR-RES ovarian it was over 100 µM; in the test on K-562 leukemia, 14.6 µM; with M14 melanoma it was over 100 µM; in the test on ACHN renal it was 31.2 µM. Also, the GI50 in the test on MDA-MB-435 was 30.7 µM; in the test on HS 578T breast, over 100 µM; in the test with UACC-62 melanoma, 75.1 µM; in the test with T-47D breast it was 93 µM. The TGI with SK-MEL-2 melanoma is over 100 µM; in the test with HCT-116 colon, over 100 µM; in the test on NCI/ADR-RES ovarian, over 100 µM; in the test with K-562 leukemia, 61.8 µM; with M14 melanoma it was over 100 µM; in the test on ACHN renal it was over 100 µM. For the same compound, the TGI in the test with MDA-MB-435, in the test with HS 578T breast, in the test with UACC-62 melanoma and with T-47D breast was over 100 µM in each case.

As to `COc1ccccc1CCN=C1NC(=O)/C(=C/c2ccc3ncccc3c2)S1`, the GI50 was 6.57 µM with SK-MEL-2 melanoma; 1.63 µM in the test with HCT-116 colon; 6.21 µM with NCI/ADR-RES ovarian; 1.37 µM in the test on K-562 leukemia; 8.41 µM in the test on M14 melanoma; 5.98 µM in the test with ACHN renal. Besides, the GI50 in the test with MDA-MB-435 was 1.43 µM; in the test on HS 578T breast it was 7.39 µM; in the test with UACC-62 melanoma, 6.1 µM; with T-47D breast it was 6.76 µM. Also, the TGI was 13.5 µM with SK-MEL-2 melanoma; over 12.4 µM in the test on HCT-116 colon; over 25 µM in the test with NCI/ADR-RES ovarian; over 25 µM in the test on K-562 leukemia; over 25 µM with M14 melanoma; 24.5 µM in the test with ACHN renal. The TGI is over 25 µM with MDA-MB-435, over 18.1 µM in the test with HS 578T breast, over 25 µM in the test with UACC-62 melanoma and over 23.1 µM in the test with T-47D breast.

For the compound `COc1cc(C)c(Cl)cc1C1=NN(c2ccc(S(N)(=O)=O)cc2)C(/C=C/c2ccccc2)C1` (stereo not given), the GI50 is 3.24 µM with SK-MEL-2 melanoma; 1.9 µM with HCT-116 colon; 3.46 µM in the test on NCI/ADR-RES ovarian; 5.29 µM in the test on K-562 leukemia; 4.11 µM with M14 melanoma; 3.2 µM in the test on ACHN renal. In addition, the GI50 in the test on MDA-MB-435 was 2.65 µM; in the test on HS 578T breast it was 2.89 µM; in the test with UACC-62 melanoma, 3.77 µM; in the test on T-47D breast, 3.34 µM. Further, the TGI with SK-MEL-2 melanoma was 8.75 µM; in the test with HCT-116 colon, 4.72 µM; with NCI/ADR-RES ovarian, 37.7 µM; in the test on K-562 leukemia, over 100 µM; with M14 melanoma, 24.3 µM; with ACHN renal, 13.3 µM. Further, the TGI is 8.4 µM in the test with MDA-MB-435, 9.83 µM in the test with HS 578T breast, 19.4 µM in the test on UACC-62 melanoma and 16 µM with T-47D breast.

`CCn1c(CN2CCN(Cc3ccccc3)CC2)nc2cc(NC(=O)c3cccs3)ccc21`: the GI50 in the test on SK-MEL-2 melanoma was 20 µM; in the test on HCT-116 colon, 14.4 µM; in the test with NCI/ADR-RES ovarian, 28.9 µM; in the test on K-562 leukemia, 15.1 µM; with M14 melanoma it was 16.9 µM; with ACHN renal, 18.7 µM. Further, the GI50 is 14.8 µM with MDA-MB-435, 16.9 µM in the test with HS 578T breast, 14.3 µM with UACC-62 melanoma and 6.8 µM in the test on T-47D breast. Moreover, the TGI in the test with SK-MEL-2 melanoma was 39.3 µM; with HCT-116 colon it was 38.7 µM; in the test with NCI/ADR-RES ovarian, over 100 µM; in the test with K-562 leukemia, 87.9 µM; in the test on M14 melanoma, 33.4 µM; in the test with ACHN renal it was 75.4 µM. Besides, the TGI with MDA-MB-435 came out at 28.9 µM; with HS 578T breast, 48.8 µM; in the test on UACC-62 melanoma, 31.5 µM; with T-47D breast, 33.8 µM.

Regarding `O=C(c1ccco1)c1nc2cc(Cl)ccc2[n+]([O-])c1C(F)(F)F`, the GI50 in the test on SK-MEL-2 melanoma is over 100 µM; in the test with HCT-116 colon it was 40.6 µM; in the test with NCI/ADR-RES ovarian, 52.4 µM; with K-562 leukemia, 22.2 µM; in the test on M14 melanoma, 59.1 µM; in the test on ACHN renal, 51.2 µM. Moreover, the GI50 was over 100 µM in the test with MDA-MB-435, over 100 µM in the test with HS 578T breast, 40.7 µM with UACC-62 melanoma and 27.5 µM with T-47D breast. Further, the TGI in the test on SK-MEL-2 melanoma is over 100 µM; in the test with HCT-116 colon it was over 100 µM; in the test with NCI/ADR-RES ovarian, over 100 µM; with K-562 leukemia, 54.3 µM; in the test with M14 melanoma, over 100 µM; in the test on ACHN renal, over 100 µM. Further, the TGI in the test on MDA-MB-435, with HS 578T breast, in the test with UACC-62 melanoma and in the test with T-47D breast was over 100 µM throughout.

Take `C/C(=N\Nc1cc(C)c2cc(C)ccc2n1)c1ccccn1`: the GI50 in the test on SK-MEL-2 melanoma was 0.0706 µM; in the test with HCT-116 colon it was under 0.0497 µM; in the test with NCI/ADR-RES ovarian, 0.0666 µM; in the test with K-562 leukemia, 0.095 µM; with M14 melanoma, 0.0684 µM; in the test on ACHN renal, under 0.0424 µM. Besides, the GI50 was 0.145 µM in the test on MDA-MB-435, 1.16 µM in the test with HS 578T breast, 0.0794 µM with UACC-62 melanoma and under 0.0464 µM in the test with T-47D breast. Further, the TGI with SK-MEL-2 melanoma was 10.8 µM; with HCT-116 colon it was 1.36 µM; in the test on NCI/ADR-RES ovarian, 3.85 µM; with K-562 leukemia, 1.43 µM; in the test on M14 melanoma it was 1.32 µM; in the test with ACHN renal, 1.14 µM. Moreover, the TGI in the test with MDA-MB-435 was 1.79 µM; in the test on HS 578T breast, 6.87 µM; with UACC-62 melanoma, 0.375 µM; in the test with T-47D breast, 1.46 µM.

For the compound `O=C(Nc1cccc(Cl)c1)c1ccc(NC2=C(Cl)C(=O)N(Cc3ccccc3)C2=O)cc1`, the GI50 was 18.9 µM with SK-MEL-2 melanoma; 6.31 µM in the test on HCT-116 colon; 9.53 µM in the test on NCI/ADR-RES ovarian; 2.58 µM in the test with K-562 leukemia; 16.6 µM with M14 melanoma; 17.6 µM in the test on ACHN renal. Moreover, the GI50 in the test with MDA-MB-435 was 9.43 µM; in the test on HS 578T breast, 18.6 µM; in the test with UACC-62 melanoma, 11.6 µM; with T-47D breast, 17.8 µM. For the same compound, the TGI in the test on SK-MEL-2 melanoma is over 100 µM; in the test with HCT-116 colon it was 17.2 µM; in the test on NCI/ADR-RES ovarian it was 24.9 µM; in the test with K-562 leukemia it was 8.69 µM; with M14 melanoma it was 37.3 µM; in the test with ACHN renal, over 53.4 µM. In addition, the TGI was 33.6 µM in the test on MDA-MB-435, 48.5 µM with HS 578T breast, 25.4 µM with UACC-62 melanoma and over 54.4 µM in the test with T-47D breast.
